{
  "source": "patent US20220288001A1",
  "about": "“CREATINE FOR IMMUNOTHERAPY” (The Regents of the University of California, priority 2019, published 2022)",
  "key": {"[1]": {"test": "Creatine quantification in serum after creatine supplementation", "format": "in vivo, mouse", "details": "C57BL/6J WT mice, B16-OVA model; i.p. injection or dietary supplementation (0.4 g/kg body weight), both routes", "description": "A Creatine Assay Kit (Cat #ab65339, Abcam) was utilized to quantify creatine, both in vivo and in vitro, following the manufacturer's instructions. For the in vivo study, whole blood was collected (retro-orbital bleeding) from the experimental mice in a capillary tube, and the isolated serum was immediately used for the assay following the manufacturer's directions. For the in vitro study, cells were spun to remove culture media and suspended in cold PBS. Creatine was then quantified following the manufacturer's directions. The total amount of creatine detected was then normalized to cell numbers.\nFor creatine supplementation via i.p. injection, ceatine monohydrate (cat #C3630, Sigma-Aldrich) was dissolved in sterile PBS and i.p. injected to experimental animals daily at a dose of 10.5 mg per animal per injection.\nFor creatine supplementation via diet, experimental animals were fed a creatine-enriched isocaloric diet which is a customized formulation based on PicoLab Rodent Diet 20 enriched in creatine (3 g/Kg diet, cat #TD.170082, Envigo Teklad Diet). The diet was designed to reflect the safe daily dose of creatine recommended for enhanced athletic performance in humans (Mayo Clinic data). Non-treated mice (Ctrl) were fed a control diet prepared in a manner similar to that of the creatine-enriched diet."}, "[2]": {"tested_on": "B16-OVA tumors", "test": "B16-OVA tumors in immunodeficient NSG mice, creatine supplementation", "format": "in vivo, mouse", "details": "i.p. creatine"}},
  "data": [
    {"smiles": "CN(CC(=O)O)C(=N)N", "note": "[creatine]", "values": [
      {"measurement": "creatine concentrations in blood (serum)", "setting": "[1]", "result": "elevated creatine concentrations in blood to a similar level"},
      {"measurement": "tumor growth", "setting": "[2]", "result": "could not be suppressed"}
    ]}
  ]
}
